Experimental data from patent US4950686A, “Anti-mycoplasma agent” (Shionogi & Co., Ltd., priority 1986, dated 1990).
Converted amounts (≈) assume the structure as drawn. Values belong to the compound of their own block, whether it stands above or below them.

Assays:
[1] = system: Mycoplasma gallisepticum S6 (standard strain); experiment: Anti-mycoplasma activity in vitro (MIC, broth dilution), strain S6; assay type: cell-based; conditions: Mycoplasmoides gallisepticum, 168 h, Mg S6, 37° C., 7 days; read-out: MIC
Protocol: (§1) (1) Anti-mycoplasma activity test in vitro
(§2) MIC values of each of Tropolones were measured on the following strains according to the following method.
(§3) (a) Mycoplasma gallisepticum
(§4) Medium: Chick PPLO broth supplemented with 20% equine serum (Eiken Kagaku Co., Ltd.)
(§5) Method: Broth dilution method
(§6) Inoculum: Culture incubated at 37° C. for 24-48 hr which is diluted with broth to 10^6 CCU/ml immediately before the use.
(§7) To 1.6 ml of the broth is added 0.2 ml of an agent which has been subjected to 2-fold dilution and then added 0.2 ml of inoculum, which is incubated at 37° C. for 7 days.

[2] = system: Mycoplasma gallisepticum T-7-T (wild strain, tylosin-resistant); experiment: Anti-mycoplasma activity in vitro (MIC, broth dilution), strain T-7-T; assay type: cell-based; conditions: Mycoplasmoides gallisepticum, 168 h, Mg T-7-T, 37° C., 7 days; read-out: MIC
Protocol: as §1, §2, §3
(§8) T-7-T (wild strain, tylosin-resistant)
as §4, §5, §6, §7

[3] = system: Mycoplasma gallisepticum MR-1 (wild strain, tylosin-resistant); experiment: Anti-mycoplasma activity in vitro (MIC, broth dilution), strain MR-1; assay type: cell-based; conditions: Mycoplasmoides gallisepticum, 168 h, Mg MR-1, 37° C., 7 days; read-out: MIC
Protocol: as §1, §2, §3
(§9) MR-1 (wild strain, tylosin-resistant)
as §4, §5, §6, §7

[4] = system: Mycoplasma hyopneumoniae ST-11 (standard strain); experiment: Anti-mycoplasma activity in vitro (MIC, broth dilution), strain ST-11; assay type: cell-based; conditions: Mesomycoplasma hyopneumoniae, Mh ST-11; read-out: MIC
Protocol: as §1, §2
(b) Mycoplasma hyopneumoniae
Strain: ST-11 (standard strain)
Medium: 850 ml of Hanks' solution supplemented with 0.5% lactoalbumin, 50 ml of 25% yeast, 100 ml of equine serum and 4-6 ml of 0.5% phenol red (pH 7.4-7.6)
as §5
Inoculum: Culture which is incubated for 3-4 days and diluted 10 times with the broth if color of the broth becomes yellow then. If it needs over 4 days until color of the broth becomes yellow, it is further subcultured. This is diluted 10 times with the broth to give inoculum.
Assay is done in the same manner as in the above (a).

[5] = system: Mycoplasma gallisepticum T-7-T (wild strain, tylosin-resistant); experiment: Mycoplasma gallisepticum air-sac infection method in chicken, strain T-7-T; assay type: in vivo, Mycoplasma gallisepticum; SPF chicken (white leghorn);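 for Index of Isolation: index = (P×1 + Q×2 + R×3)/S with range 0 to 6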
Protocol: (§10) (2) Test of Effectiveness Mycoplasma gallisepticum air-sac infection method
as §8
(§11) Inoculation: To the right air-sac of 9 days old SPF chicken (a white leghorn) which has abstained from water and feed one day before is inoculated 0.20-0.25 ml/chicken of fresh mycoplasma culture incubated for 24-48 hr and diluted with broth (usually 100 times). The concentration in Table 2 is shown in a unit of mg/ml.
(§12) Medium: Chick PPLO broth supplemented with 15% equine serum (Eiken Kagaku Co., Ltd.)
(§13) Administration: A compound of this invention dissolved or suspended in the following solution is orally and forcibly administered once by a cannula immediately after the infection.
(§14) Anatomization and Isolation of Microorganism: The chickens are anatomized 5 days after the infection, and the right and left air sacs are investigated whether they are attacked with a disease or not. The change caused by the disease is represented in four degrees; -: no change, +: slight, ++: medium and +++: serious. Microorganism is isolated from the right and left air-sacs and the trachea by using a sterilized applicator.
(§15) Judgement: Judgement is done through an index of an air-sac disease and an index of a microorganism-isolation.
(§16) Index of an air-sac-disease: First, indexes in the right and left air-sacs are separately calculated according to the following formula;
(§17) {degree of disease (0-3)×chickens}/anatomized chickens
(§18) and the index is calculated by the following formula;
(§19) (index of right air-sac)×1+(index of left air-sac)×2
(§20) Index of a microorganism isolation:
(§21) P: chickens from the right air-sac of which microorganism is isolated,
(§22) Q: chickens from the trachea of which microorganism is isolated,
(§23) R: chickens from the left air-sac of which microorganism is isolated, and
(§24) S: chickens investigated.

[6] = system: Mycoplasma gallisepticum MR-1 (wild strain, tylosin-resistant); experiment: Mycoplasma gallisepticum air-sac infection method in chicken, strain MR-1;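 for Index of Isolation: index = (P×1 + Q×2 + R×3)/S with range 0 to 6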; assay type: in vivo, Mycoplasma gallisepticum; SPF chicken (white leghorn); conditions: 100 mg/kg × once oral, 10 mg/ml sol. b
Protocol: as §10, §9, §11, §12, §13, §14, §15, §16, §17, §18, §19, §20, §21, §22, §23, §24

[7] = 200 mg/kg × once oral, 20 mg/ml DW, inoculum 1.9 × 10^5
[8] = 200 mg/kg × once oral, 20 mg/ml DW, inoculum 1.9 × 10^5, range 0-6.0
[9] = 200 mg/kg × once oral, 20 mg/ml DW, inoculum 1.9 × 10^5, range 0-9.0
[10] = 100 mg/kg × once oral, 10 mg/ml sol. b, inoculum 10^2

Structure (SMILES): Cc1ccc(S(=O)(=O)Oc2cccccc2=O)cc1 [Compound 16, O-(p-Toluensulfonyl)tropolone]
- MIC [1]: 3.13 µg/mL (≈ 11.3 µM)
- MIC [4]: 6.25 µg/mL (≈ 22.6 µM)

Structure (SMILES): O=C(COc1cccccc1=O)c1ccccc1 [Compound 21, O-(Benzoylmethyl)tropolone]
- MIC [1]: 0.78 µg/mL (≈ 3.25 µM)
- MIC [4]: 0.2 µg/mL (≈ 0.832 µM)

Structure (SMILES): C[C@H]1c2cccc(O)c2C(=O)C2=C(O)[C@]3(O)C(=O)C(C(N)=O)=C(O)[C@@H](N(C)C)[C@@H]3[C@@H](O)[C@@H]21 [doxycycline, reference compound]
- Change of air-sac, left: + (chickens) [5, 7]: 2
- Change of air-sac, left: ++ (chickens) [5, 7]: 1
- Change of air-sac, left: +++ (chickens) [5, 7]: 0
- Change of air-sac, left: - (chickens) [5, 7]: 2
- Change of air-sac, right: + (chickens) [5, 7]: 0
- Change of air-sac, right: ++ (chickens) [5, 7]: 4
- Change of air-sac, right: +++ (chickens) [5, 7]: 0
- Change of air-sac, right: - (chickens) [5, 7]: 1
- Isolation, L (left air-sac) [5, 7]: 5
- Isolation, R (right air-sac) [5, 7]: 5
- Isolation, T (trachea) [5, 7]: 5
- Mycoplasma Isolated Chickens [5, 7]: 5
- Index of Isolation [5, 8]: 6.0
- Index of Disease [5, 9]: 3.2

Structure (SMILES): CC[C@H]1OC(=O)C[C@@H](O)[C@H](C)[C@@H](O[C@@H]2O[C@H](C)[C@@H](O[C@H]3C[C@@](C)(O)[C@@H](O)[C@H](C)O3)[C@H](N(C)C)[C@H]2O)[C@@H](CC=O)C[C@@H](C)C(=O)/C=C/C(C)=C/[C@@H]1CO[C@@H]1O[C@H](C)[C@@H](O)[C@@H](OC)[C@H]1OC [tylosin, reference compound]
- Change of air-sac, left: + (chickens) [5, 10]: 0
- Change of air-sac, left: ++ (chickens) [5, 10]: 2
- Change of air-sac, left: +++ (chickens) [5, 10]: 0
- Change of air-sac, left: - (chickens) [5, 10]: 6
- Change of air-sac, right: + (chickens) [5, 10]: 1
- Change of air-sac, right: ++ (chickens) [5, 10]: 5
- Change of air-sac, right: +++ (chickens) [5, 10]: 1
- Change of air-sac, right: - (chickens) [5, 10]: 1
- Isolation, L (left air-sac) [5, 10]: 8
- Isolation, R (right air-sac) [5, 10]: 7
- Isolation, T (trachea) [5, 10]: 8
- Mycoplasma Isolated Chickens [5, 10]: 8
- Index of Isolation ([5]; 100 mg/kg × once oral, 10 mg/ml sol. b, inoculum 10^2, range 0-6.0): 5.60
- Index of Disease ([5]; 100 mg/kg × once oral, 10 mg/ml sol. b, inoculum 10^2, range 0-9.0): 2.80
- Change of air-sac, left: + (chickens) [5, 7]: 0
- Change of air-sac, left: ++ (chickens) [5, 7]: 0
- Change of air-sac, left: +++ (chickens) [5, 7]: 0
- Change of air-sac, left: - (chickens) [5, 7]: 5
- Change of air-sac, right: + (chickens) [5, 7]: 0
- Change of air-sac, right: ++ (chickens) [5, 7]: 1
- Change of air-sac, right: +++ (chickens) [5, 7]: 4
- Change of air-sac, right: - (chickens) [5, 7]: 0
- Isolation, L (left air-sac) [5, 7]: 4
- Isolation, R (right air-sac) [5, 7]: 5
- Isolation, T (trachea) [5, 7]: 5
- Mycoplasma Isolated Chickens [5, 7]: 5
- Index of Isolation [5, 8]: 5.4
- Index of Disease [5, 9]: 2.8
- Change of air-sac, left: + (chickens) ([6]; inoculum 0.3 × 10^5): 1
- Change of air-sac, left: ++ (chickens) ([6]; inoculum 0.3 × 10^5): 0
- Change of air-sac, left: +++ (chickens) ([6]; inoculum 0.3 × 10^5): 0
- Change of air-sac, left: - (chickens) ([6]; inoculum 0.3 × 10^5): 5
- Change of air-sac, right: + (chickens) ([6]; inoculum 0.3 × 10^5): 0
- Change of air-sac, right: ++ (chickens) ([6]; inoculum 0.3 × 10^5): 3
- Change of air-sac, right: +++ (chickens) ([6]; inoculum 0.3 × 10^5): 3
- Change of air-sac, right: - (chickens) ([6]; inoculum 0.3 × 10^5): 0
- Isolation, L (left air-sac) ([6]; inoculum 0.3 × 10^5): 6
- Isolation, R (right air-sac) ([6]; inoculum 0.3 × 10^5): 6
- Isolation, T (trachea) ([6]; inoculum 0.3 × 10^5): 6
- Mycoplasma Isolated Chickens ([6]; inoculum 0.3 × 10^5): 6
- Index of Isolation ([6]; inoculum 0.3 × 10^5, range 0-6.0): 6.0
- Index of Disease ([6]; inoculum 0.3 × 10^5, range 0-9.0): 2.8

More lines, now with the values ahead:

- MIC [1]: 6.25 µg/mL (≈ 38.3 µM)
- MIC [2]: 6.25 µg/mL (≈ 38.3 µM)
- MIC [3]: 12.5 µg/mL (≈ 76.6 µM)
- MIC [4]: 0.39 µg/mL (≈ 2.39 µM)
Structure (SMILES): N#CSc1cccccc1=O [Compound 15, 2-Thiocyanatotropone]

- MIC [1]: > 25 µg/mL
- MIC [4]: > 25 µg/mL
Structure (SMILES): CC(Oc1cccccc1=O)C(=O)O (stereo not shown) [Compound 17, O-(1-Carboxyethyl)tropolone]

- MIC [1]: > 25 µg/mL
- MIC [4]: > 25 µg/mL
Structure (SMILES): CC(C)(C)OC(=O)COc1cccccc1=O [Compound 18, O-(tert-Butyloxycarbonylmethyl)tropolone]

- MIC [1]: > 25 µg/mL
- MIC [2]: > 25 µg/mL
- MIC [4]: > 25 µg/mL
Structure (SMILES): CCOC(=O)C(C)Oc1cccccc1=O (stereo not shown) [Compound 20, O-(1-Ethoxycarbonylethyl)tropolone]

- MIC [1]: > 25 µg/mL
- MIC [4]: 25 µg/mL (≈ 154 µM)
Structure (SMILES): C=CCOc1cccccc1=O [Compound 22, O-Allyltropolone]
